Measured values taken from US8883841B2, “Oncogenic ras-specific cytotoxic compound and methods of use thereof” (The Board of Regents of the University of Texas System, priority 2005, dated 2014).

Key:
wild-type MEF = conditions: Winter-Vann et al., 2005; cited from earlier work
PKCiota = test: Immunohistochemical staining, subcellular localization of PKCiota; assay type: cell-based, human; conditions: 12 h; comparators at doses giving similar cell killing
Procedure: Effects on subcellular localization of PKCiota. […] To further investigate molecular mechanisms of Oncrasin action the inventors studied the subcellular localization of several molecules involved in Ras-signaling pathway because the functions of Ras and other proteins are directly related to their subcellular localizations. For this purpose, T29Kt1 or H460 cells were seeded on cover glass slides and treated with DMSO or Oncrasin-1 for 12 h. Cells were then fixed with paraformaldehyde, permeabilized with Triton X-100 and stained with various antibodies for immunohistochemical examination. […] Nevertheless, substantial subcellular localization change was detected for PKCiota after Oncrasin-1 treatment (FIG. 6). In both H460 and T29Kt1 cells, both PKCiota and PKCzeta were diffusely distributed in cells with high concentration on cell membrane in nucleus, consisting with previous reports that aPKC contains both nuclear localization signal (NLS) and nuclear export signal (NES), and can shuttle between cytoplasm and nucleus, which was regulated by intramolecular conformational changes, phosphorylation or by treatment with growth factors (Perander et al., 2001; White et al., 2002; Neri et al., 1999). […] Such aggregation of PKCiota was not observed in Oncrasin-resistant T29 and H1299 cells. The inventors then tested whether PKCiota aggregation in the nucleus can be induced by other chemotherapeutic agents such as 5-fluorouracil (5-FU) and paclitaxol.

H460 cells = conditions: up to 100 μM
[1] = at any of the doses tested (dose response)
[2] = up to 100 μM, the highest concentration tested

CCCCCCCCn1cc(CC(N)=O)c2cc(-c3cccc(C)c3)ccc21 [Cysmethynil, 2-[5-(3-methylphenyl)-1-octyl-1H-indol-3-yl]acetamide]
growth inhibition in wild-type MEF (wild-type MEF): induce Icmt-dependent growth inhibition

O=c1cc(N2CCOCC2)oc2c(-c3ccccc3)cccc12 [LY294003, reference compound]
PKCiota aggregation in the nucleus, T29Kt1 cells (PKCiota): did not induce PKCiota aggregation

O=c1[nH]cc(F)c(=O)[nH]1 [Oncrasin 5-FLY, 5-fluorouracil, reference compound]
PKCiota aggregation in the nucleus, T29Kt1 cells (PKCiota): did not induce PKCiota aggregation

OCc1c[nH]c2ccccc12 [indole-3-carbinol, reference compound]
toxicity to T29K cells (T29Kt1 cells; same dose range as tested for the leader): did not induce any cytotoxicity | cytotoxicity in T29Kt1 cells (T29Kt1 cells; up to 100 μM): did not have any cytotoxic effects | toxicity to T29Ht1 (T29H) cells (T29Ht1 cells; [1]): did not induce any cytotoxicity | cytotoxicity in T29Ht1 cells (T29Ht1 cells; [2]): did not have any cytotoxic effects | toxicity to T29 cells (T29 cells; [1]): did not induce any cytotoxicity | cytotoxicity in T29 cells (T29 cells; [2]): did not have any cytotoxic effects | cytotoxicity in H460 cells (H460 cells): did not have any cytotoxic effects

CC(=O)O[C@H]1C(=O)[C@@]2(C)[C@H]([C@H](OC(=O)c3ccccc3)[C@]3(O)C[C@H](OC(=O)[C@H](O)[C@@H](NC(=O)c4ccccc4)c4ccccc4)C(C)=C1C3(C)C)[C@]1(OC(C)=O)CO[C@@H]1C[C@@H]2O [taxol, paclitaxol, reference compound]
PKCiota aggregation in the nucleus, T29Kt1 cells (PKCiota): did not induce PKCiota aggregation
